Laboratory results reported in US11833156B2, “Heterocyclic compounds as pad inhibitors” (JUBILANT EPIPAD LLC, priority 2017, dated 2023).

How the values were obtained:
[1] = target: T1, PAD4 enzyme (Homo sapiens (Human), UniProt Q9UM07); test: FP Binding Assay; conditions: for IC50: PAD4 1 uM, 10 nM fluorescein labelled probe JPAD-00085
Method: Binding of compounds with PAD4 enzyme was detected by FP assay. PAD4 enzyme was diluted to 1 uM in assay buffer (100 mM HEPES, 50 mM NaCl, 1 mM DTT, 5% Glycerol and 1 mM CHAPS) and added to wells containing various concentration of compounds or DMSO vehicle (1%) in a 384 well black plate. 10 nM of fluorescein labelled probe (JPAD-00085) was added to the plate. Assay plate was incubated for 60 minutes at room temperature before measuring FP reading at FP module (λex 485/λem 535 nm) on Pherastar. IC50 was calculated using XL-fit software model 205. (Ref: Nat Chem Biol. 2015 March; 11(3):189-91).

[2] = target: T1, PAD4 enzyme; test: Ammonia Release Biochemical Assay (citrullination detected via ammonia release); conditions: PAD4 120 nM, substrate BAEE, 60-min preincubation, read-out: NH3 release
In short: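 PAD4 (diluted to 120 nM) was preincubated 60 min at room temperature with compound (1% DMSO final) in HEPES pH 7.4 with DTT and BSA, then reacted 60 min with 1.5 mM BAEE in Ca2+-containing buffer. Ammonia released was detected after EDTA stop with o-phthalaldehyde/DTT (90 min, fluorescence ex 405/em 460 nm), giving IC50.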

T1 sequence (Q9UM07 whole entry): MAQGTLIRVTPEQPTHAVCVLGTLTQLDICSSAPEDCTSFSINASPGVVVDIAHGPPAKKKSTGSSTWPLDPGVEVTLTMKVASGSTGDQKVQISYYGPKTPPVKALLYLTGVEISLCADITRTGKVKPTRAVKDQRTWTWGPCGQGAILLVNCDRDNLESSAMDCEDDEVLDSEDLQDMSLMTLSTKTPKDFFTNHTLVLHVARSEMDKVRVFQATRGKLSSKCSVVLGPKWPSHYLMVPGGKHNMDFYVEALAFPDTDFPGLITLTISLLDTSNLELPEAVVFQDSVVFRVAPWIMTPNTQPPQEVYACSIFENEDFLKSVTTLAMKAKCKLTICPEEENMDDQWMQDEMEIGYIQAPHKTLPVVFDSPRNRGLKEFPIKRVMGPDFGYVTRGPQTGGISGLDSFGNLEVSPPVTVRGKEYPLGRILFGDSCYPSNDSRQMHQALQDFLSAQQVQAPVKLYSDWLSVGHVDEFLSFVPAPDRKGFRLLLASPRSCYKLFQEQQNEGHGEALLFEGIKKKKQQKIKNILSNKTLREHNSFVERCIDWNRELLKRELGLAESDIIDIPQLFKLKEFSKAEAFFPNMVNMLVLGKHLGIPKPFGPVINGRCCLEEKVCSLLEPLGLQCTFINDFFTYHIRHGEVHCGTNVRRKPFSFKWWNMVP

IC50 [1]	IC50 [2]	inhibition of PAD4 enzyme activity in FP Binding assay [1]	SMILES
1000 to 10000 nM	≤ 1000 nM		N[C@@H]1CCCN(C(=O)c2cc3c4c(c2)nc(-c2cc5ccccc5n2Cc2cccnc2)n4CCO3)C1 [Example 16, (R)-(3-aminopiperidin-1-yl)(2-(1-(pyridin-3-ylmethyl)-1H-indol-2-yl)-3,4-dihydro-5-oxa-1,2a-diazaacenaphthylen-7-yl)methanone]
1000 to 10000 nM	1000 to 10000 nM		CCn1c(-c2nc3cc(C(=O)N4CCC[C@@H](N)C4)cc4c3n2CCO4)cc2cccnc21 [Example 5, (R)-(3-aminopiperidin-1-yl)(2-(1-ethyl-1H-pyrrolo[2,3-b]pyridin-2-yl)-3,4-dihydro-5-oxa-1,2a-diazaacenaphthylen-7-yl)methanone]
≤ 1000 nM	≤ 1000 nM		N[C@@H]1CCCN(C(=O)c2cc3c4c(c2)nc(-c2cc5ccc(F)cc5n2CC2CC2)n4CCN3)C1 [Example 65, (R)-(3-aminopiperidin-1-yl)(2-(1-(cyclopropylmethyl)-6-fluoro-1H-indol-2-yl)-5,6-dihydro-4H-imidazo [1,5,4-de]quinoxalin-8-yl)methanone]
1000 to 10000 nM	≤ 1000 nM		N[C@@H]1CCCN(C(=O)c2cc3c4c(c2)nc(-c2cc5ccccc5n2Cc2ccccc2)n4CCO3)C1 [Example 18, (R)-(3-aminopiperidin-1-yl)(2-(1-benzyl-1H-indol-2-yl)-3,4-dihydro-5-oxa-1,2a-diazaacenaphthylen-7-yl)methanone]
	1000 to 10000 nM	actively inhibiting PAD4 enzyme activity	N[C@@H]1CCCN(C(=O)c2cc3c4c(c2)nc(-c2cc5ccccc5n2Cc2ccccc2F)n4CCO3)C1 [Example 14, (R)-(3-aminopiperidin-1-yl)(2-(1-(2-fluorobenzyl)-1H-indol-2-yl)-3,4-dihydro-5-oxa-1,2a-diazaacenaphthylene-7-yl)methanone]
		actively inhibiting PAD4 enzyme activity	COc1ccc2cc(-c3nc4cc(C(=O)N5CCC[C@@H](N)C5)cc5c4n3CCN5)n(CC3CC3)c2c1 [Example 73, (R)-(3-aminopiperidin-1-yl)(2-(1-(cyclopropylmethyl)-6-methoxy-1H-indol-2-yl)-5,6-dihydro-4H-imidazo[1,5,4-de]quinoxalin-8-yl)methanone]
1000 to 10000 nM	≤ 1000 nM		N[C@@H]1CCCN(C(=O)c2cc3c4c(c2)nc(-c2cc5ccccc5n2Cc2cccnc2)n4CCN3)C1 [Example 66, (R)-(3-aminopiperidin-1-yl)(2-(1-(pyridin-3-ylmethyl)-1H-indol-2-yl)-5,6-dihydro-4H-imidazo [1,5,4-de]quinoxalin-8-yl)methanone]
1000 to 10000 nM	≤ 1000 nM		COc1cc2cc(-c3nc4cc(C(=O)N5CCC[C@@H](N)C5)cc5c4n3CCO5)n(CC3CC3)c2cc1OC [Example 17, (R)-(3-aminopiperidin-1-yl)(2-(1-(cyclopropylmethyl)-5,6-dimethoxy-1H-indol-2-yl)-3,4-dihydro-5-oxa-1,2a-diazaacenaphthylen-7-yl)methanone]
1000 to 10000 nM	≤ 1000 nM		N[C@@H]1CCCN(C(=O)c2cc3c4c(c2)nc(-c2cc5ccccc5n2Cc2ccc(F)cc2)n4CCO3)C1 [Example 15, (R)-(3-aminopiperidin-1-yl)(2-(1-(4-fluorobenzyl)-1H-indol-2-yl)-3,4-dihydro-5-oxa-1,2a-diazaacenaphthylen-7-yl)methanone]
1000 to 10000 nM	≤ 1000 nM		N[C@@H]1CCCN(C(=O)c2cc3c4c(c2)nc(-c2cc5ccccc5n2Cc2ccc(Cl)cc2)n4CCO3)C1 [Example 13, (R)-(3-aminopiperidin-1-yl)(2-(1-(4-chlorobenzyl)-1H-indol-2-yl)-3,4-dihydro-5-oxa-1,2a-diazaacenaphthylene-7-yl)methanone]
1000 to 10000 nM			N[C@@H]1CCCN(C(=O)c2cc3c4c(c2)nc(-c2cc5ccccc5n2CC2CC2)n4CCO3)C1 [Example 1, (R)-(3-aminopiperidin-1-yl)(2-(1-(cyclopropylmethyl)-1H-indol-2-yl)-3,4-dihydro-5-oxa-1,2a-diazaacenaphthylen-7-yl)methanone]
≤ 1000 nM	≤ 1000 nM		N[C@@H]1CCCN(C(=O)c2cc3c4c(c2)nc(-c2cc5cc(F)ccc5n2CC2CC2)n4CCO3)C1 [Example 9, (R)-(3-aminopiperidin-1-yl)(2-(1-(cyclopropylmethyl)-5-fluoro-1H-indol-2-yl)-3,4-dihydro-5-oxa-1,2a-diazaacenaphthylen-7-yl)methanone]
		actively inhibiting PAD4 enzyme activity	COc1ccc(Cn2c(-c3nc4cc(C(=O)N5CCC[C@@H](N)C5)cc5c4n3CCO5)cc3ccccc32)cc1 [Example 19, (R)-(3-aminopiperidin-1-yl)(2-(1-(4-methoxybenzyl)-1H-indol-2-yl)-3,4-dihydro-5-oxa-1,2a-diazaacenaphthylen-7-yl)methanone]
		actively inhibiting PAD4 enzyme activity	CN1CCn2c(-c3cc4ccccc4n3CC3CC3)nc3cc(C(=O)N4CCC[C@@H](N)C4)cc1c32 [Example 72, (R)-(3-aminopiperidin-1-yl)(2-(1-(cyclopropylmethyl)-1H-indol-2-yl)-6-methyl-5,6-dihydro-4H-imidazo[1,5,4-de]quinoxalin-8-yl)methanone]
1000 to 10000 nM	≤ 1000 nM		CS(=O)(=O)N1CCn2c(-c3cc4ccccc4n3CC3CC3)nc3cc(C(=O)N4CCC[C@@H](N)C4)cc1c32 [Example 76, (R)-(3-aminopiperidin-1-yl)(2-(1-(cyclopropylmethyl)-1H-indol-2-yl)-6-(methylsulfonyl)-5,6-dihydro-4H-imidazo[1,5,4-de]quinoxalin-8-yl)methanone]
